Experiment: recombinant barcode read abundance after kanamycin selection (control-corrected) (log10(CPM+1)); higher = more efficient recombination; sequences stand for … in AGTGCAGAGAAAATCGGCCAGTTTTCTCTGCCTGCAGTCCGCATGCCGT…AGATTTATGCAGCGGACTGCCTTTCTCCCAAAGTGATAAACCGGACAGTATCATGGACCGGTTTTCCCGGTAATCCGTATTTGCAAGGTTGGTTTCACT; site = the 11-nt target
In short: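 IS621 bridge RNA target-binding loops were paired with targets in a pooled library tested in E. coli. After co-electroporation with a donor plasmid, cells were plated in two replicates on chloramphenicol/ampicillin LB agar (control) and on chloramphenicol/ampicillin/kanamycin carrying 0.1 mM IPTG. Barcodes at recombinant junctions were counted as counts per million, averaged and control-corrected to give recombination efficiency. Values are log10(CPM+1).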
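Also: IS621 recombinase and bridge RNA in Escherichia coli cells.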

Sequence | recombinant barcode read abundance (log10)
GTGCTCGCTTGGGTTCTAACCTGTTGCCT (site CTGCCCGCTAG) | 0.0812
GTGCTCGCTTGGGTTCTAACCTGTTGCCT (site GTGCTCGCTAG) | 1.87
GTGGAATCTTGGGTTCTAACCTGTTGCCT (site GTGAGATCTAG) | 0.307
GTGGAATCTTGGGTTCTAACCTGTTGCCT (site GTGGAATCTAG) | 1.6
GTGGACTCTTGGGTTCTAACCTGTTGCTA (site GTGGACTCTTA) | 2.44
GTGGACTCTTGGGTTCTAACCTGTTGCTA (site GTGTACTCTAA) | 0.0609
GTGGCCACTTGGGTTCTAACCTGTTGCCT (site GTAGCCACTAG) | 1.86
GTGGCCACTTGGGTTCTAACCTGTTGCCT (site GTCGCCACTAG) | 0.152
GTGGCCACTTGGGTTCTAACCTGTTGCCT (site GTGGCCACTAG) | 1.74
GTGGCCACTTGGGTTCTAACCTGTTGCCT (site GTTGCCACTAG) | 0.229
GTGGGCACTTGGGTTCTAACCTGTTGCCT (site AGAAAGGCTGC) | 0.166
GTGGGCACTTGGGTTCTAACCTGTTGCCT (site GTGGGCACTAG) | 0.225
GTGGTATCTTGGGTTCTAACCTGTTGCCT (site GTGGTAACTAG) | 0.268
GTGGTATCTTGGGTTCTAACCTGTTGCCT (site GTGGTACCTAG) | 0.396
GTGGTATCTTGGGTTCTAACCTGTTGCCT (site GTGGTAGCTAG) | 0.312
GTGGTATCTTGGGTTCTAACCTGTTGCCT (site GTGGTATCTAG) | 1.68
GTGTACCCTTGGGTTCTAACCTGTTGCAC (site AGTATAACTCA) | 0.132
GTGTACCCTTGGGTTCTAACCTGTTGCAC (site GTGTACCCTGT) | 2.35
GTGTACCCTTGGGTTCTAACCTGTTGCGA (site GTGTACCCTAC) | 0.129
GTGTACCCTTGGGTTCTAACCTGTTGCGA (site GTGTACCCTCC) | 0.0447
GTGTACCCTTGGGTTCTAACCTGTTGCGA (site GTGTACCCTGC) | 0.0937
GTGTACCCTTGGGTTCTAACCTGTTGCGA (site GTGTACCCTTC) | 2.35
GTGTATACTTGGGTTCTAACCTGTTGCCT (site GTATATACTAG) | 1.12
GTGTATACTTGGGTTCTAACCTGTTGCCT (site GTCTATACTAG) | 0.173
GTGTATACTTGGGTTCTAACCTGTTGCCT (site GTGTATACTAG) | 1.24
GTGTATACTTGGGTTCTAACCTGTTGCCT (site GTTTATACTAG) | 0.075

Sequence | recombinant barcode read abundance (log10)
GTGTCGCCTTGGGTTCTAACCTGTTGCCT (site GTGTCGCCTAC) | 0.224
GTGTCGCCTTGGGTTCTAACCTGTTGCCT (site GTGTCGCCTAG) | 0.845
GTGTCGCCTTGGGTTCTAACCTGTTGCGT (site GTGTCGCCTAC) | 1.72
GTGTCGCCTTGGGTTCTAACCTGTTGCGT (site GTGTCGCCTAG) | 0.0604
GTGTCTCCTTGGGTTCTAACCTGTTGCAT (site GTGTATCCTAT) | 0.162
GTGTCTCCTTGGGTTCTAACCTGTTGCAT (site GTGTCTCCTAT) | 1.54
GTGTCTCCTTGGGTTCTAACCTGTTGCAT (site GTGTGTCCTAT) | 0.457
GTGTCTCCTTGGGTTCTAACCTGTTGCAT (site GTGTTTCCTAT) | 0.243
GTGTGTTCTTGGGTTCTAACCTGTTGCCT (site GTGTGTACTAG) | 1.15
GTGTGTTCTTGGGTTCTAACCTGTTGCCT (site GTGTGTCCTAG) | 0.0466
GTGTGTTCTTGGGTTCTAACCTGTTGCCT (site GTGTGTGCTAG) | 0
GTGTGTTCTTGGGTTCTAACCTGTTGCCT (site GTGTGTTCTAG) | 0.726
GTGTTGCCTTGGGTTCTAACCTGTTGCCT (site GAGTTGCCTAG) | 0.267
GTGTTGCCTTGGGTTCTAACCTGTTGCCT (site GCGTTGCCTAG) | 0.392
GTGTTGCCTTGGGTTCTAACCTGTTGCCT (site GGGTTGCCTAG) | 0.0383
GTGTTGCCTTGGGTTCTAACCTGTTGCCT (site GTGTTGCCTAG) | 0.73
GTTACCTCTTGGGTTCTAACCTGTTGCCT (site CAAGGTCCTCC) | 0.0556
GTTACCTCTTGGGTTCTAACCTGTTGCCT (site GTTACCTCTAG) | 0.859
GTTAGCCCTTGGGTTCTAACCTGTTGCAT (site GTTAGCCCTAT) | 0.928
GTTAGCCCTTGGGTTCTAACCTGTTGCAT (site TCACAGACTCG) | 0.0525
GTTAGCCCTTGGGTTCTAACCTGTTGCGG (site GTCAGCCCTCC) | 0.167
GTTAGCCCTTGGGTTCTAACCTGTTGCGG (site GTTAGCCCTCC) | 1.79
GTTCCTGCTTGGGTTCTAACCTGTTGCCT (site GTTCCTCCTAG) | 0.265
GTTCCTGCTTGGGTTCTAACCTGTTGCCT (site GTTCCTGCTAG) | 0.86
GTTCGAGCTTGGGTTCTAACCTGTTGCCT (site GTTAGAGCTAG) | 0.276
GTTCGAGCTTGGGTTCTAACCTGTTGCCT (site GTTCGAGCTAG) | 1.61

Sequence | recombinant barcode read abundance (log10)
GTTCGAGCTTGGGTTCTAACCTGTTGCCT (site GTTGGAGCTAG) | 0.114
GTTCGAGCTTGGGTTCTAACCTGTTGCCT (site GTTTGAGCTAG) | 0.153
GTTCGAGCTTGGGTTCTAACCTGTTGCGG (site ATTCGAGCTCC) | 1.74
GTTCGAGCTTGGGTTCTAACCTGTTGCGG (site GTTCGAGCTCC) | 2.49
GTTGACCCTTGGGTTCTAACCTGTTGCCT (site GTAGACCCTCG) | 0.0195
GTTGACCCTTGGGTTCTAACCTGTTGCCT (site GTTGACCCTAG) | 2.2
GTTGGCCCTTGGGTTCTAACCTGTTGCCT (site GATGGCCCTAG) | 0.579
GTTGGCCCTTGGGTTCTAACCTGTTGCCT (site GCTGGCCCTAG) | 0.306
GTTGGCCCTTGGGTTCTAACCTGTTGCCT (site GGTGGCCCTAG) | 0.152
GTTGGCCCTTGGGTTCTAACCTGTTGCCT (site GTTGGCCCTAG) | 1.94
GTTGGTCCTTGGGTTCTAACCTGTTGCGT (site GTGAGTCCTAC) | 0.136
GTTGGTCCTTGGGTTCTAACCTGTTGCGT (site GTTGGTCCTAC) | 2.76
GTTTAAACTTGGGTTCTAACCTGTTGCCT (site GTTTAAACTAG) | 0.809
GTTTAAACTTGGGTTCTAACCTGTTGCCT (site GTTTACGCTAG) | 0.0493
GTTTACGCTTGGGTTCTAACCTGTTGCCT (site GTTTAAACTAG) | 0.0797
GTTTACGCTTGGGTTCTAACCTGTTGCCT (site GTTTACGCTAG) | 1.96
GTTTCTACTTGGGTTCTAACCTGTTGCTA (site ATTTCTACTTC) | 0.128
GTTTCTACTTGGGTTCTAACCTGTTGCTA (site GTTTCTACTTA) | 0.0482
GTTTCTTCTTGGGTTCTAACCTGTTGCCT (site GATTCTTCTAG) | 0.304
GTTTCTTCTTGGGTTCTAACCTGTTGCCT (site GCTTCTTCTAG) | 0.0824
GTTTCTTCTTGGGTTCTAACCTGTTGCCT (site GGTTCTTCTAG) | 0.171
GTTTCTTCTTGGGTTCTAACCTGTTGCCT (site GTTTCTTCTAG) | 0.0189
GTTTGATCTTGGGTTCTAACCTGTTGCCT (site GTTTGATCTAG) | 0.172
GTTTGATCTTGGGTTCTAACCTGTTGCCT (site GTTTGCTCTAG) | 0.029
GTTTGATCTTGGGTTCTAACCTGTTGCCT (site GTTTGGTCTAG) | 0.212
